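Growth conditions: 96-well plates. Treatment: test compound, 48 hours, 5 concentrations. Analysis: linear interpolation between bracketing concentrations; unreached endpoints set to highest concentration. GI50: concentration for 50% inhibition of growth.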 Activity calls are given as the source filed them. No stated cut-off is given here; in the data, active = GI50 up to about 1.1 µM and inactive = higher.
Tests used:
Assay in all cases: inhibition of tumour cell growth, NCI panel, 48 h
U-251 = test system: U-251
UACC-257 = test system: UACC-257
HCT-15 = test system: HCT-15
SK-MEL-5 = test system: SK-MEL-5
OVCAR-4 = test system: OVCAR-4
CAKI-1 = test system: CAKI-1
SR = test system: SR
HT-29 = test system: HT-29
MDA-MB-435 = test system: MDA-MB-435
SK-OV-3 = test system: SK-OV-3
SF-295 = test system: SF-295
MDA-MB-231 = test system: MDA-MB-231
BT-549 = test system: BT-549
RPMI-8226 = test system: RPMI-8226
SN12C = test system: SN12C
SK-MEL-2 = test system: SK-MEL-2
SW-620 = test system: SW-620
SF-268 = test system: SF-268
PC-3 = test system: PC-3
OVCAR-3 = test system: OVCAR-3

SMILES | GI50 (U-251) | GI50 (UACC-257) | GI50 (HCT-15) | GI50 (SK-MEL-5) | GI50 (OVCAR-4) | GI50 (CAKI-1) | GI50 (SR) | GI50 (HT-29) | GI50 (MDA-MB-435) | GI50 (SK-OV-3) | GI50 (SF-295) | GI50 (MDA-MB-231) | GI50 (BT-549) | GI50 (RPMI-8226) | GI50 (SN12C) | GI50 (SK-MEL-2) | GI50 (SW-620) | GI50 (SF-268) | GI50 (PC-3) | GI50 (OVCAR-3)
COCN1C(N)=C(C(=O)OC(C)(C)C)C2=CC(=O)C=CC21C (stereo not drawn) | 17 µM (inactive) | 10.6 µM (inactive) | 13.9 µM | 15.3 µM (inactive) | 13.6 µM (inactive) | 15.2 µM (inactive) | 12.5 µM (inactive) | 6.64 µM (inactive) | 13.2 µM (inactive) | 34.6 µM (inactive) | 43.6 µM (inactive) | 15.3 µM (inactive) | 4.24 µM (inactive) | 20.4 µM (inactive) | 25.8 µM (inactive) | 17.3 µM (inactive) | 4.99 µM (inactive) | 15.8 µM (inactive) | 16.9 µM (inactive) | 
O=C(Nc1ccc(Cl)cc1)c1cc(S(=O)(=O)Nc2n[nH]c(Nc3ccc4ccccc4c3)n2)c(SSc2cc(Cl)c(C(=O)Nc3ccc(Cl)cc3)cc2S(=O)(=O)Nc2n[nH]c(Nc3ccc4ccccc4c3)n2)cc1Cl | 23.7 µM (inactive) | 33.1 µM (inactive) | 21.7 µM | 21.3 µM (inactive) | 28 µM (inactive) | 19.1 µM (inactive) | 23.7 µM (inactive) | 20.6 µM (inactive) | 30.3 µM (inactive) | 33.5 µM (inactive) | 20.5 µM (inactive) | 18.6 µM (inactive) | 24.4 µM (inactive) | 22 µM (inactive) | 22.5 µM (inactive) |  | 21.3 µM (inactive) | 41.4 µM (inactive) | 24.4 µM (inactive) | 26.2 µM (inactive)
C(=C\c1cc(-c2ccc3ccccc3n2)nc2ccc3ccccc3c12)/c1ccc2ccccc2n1 | > 100 µM (inactive) | > 100 µM (inactive) | > 100 µM | > 100 µM (inactive) | > 100 µM (inactive) | > 100 µM (inactive) | > 100 µM (inactive) | > 100 µM (inactive) | > 100 µM (inactive) | > 100 µM (inactive) | > 100 µM (inactive) | > 100 µM (inactive) | > 100 µM (inactive) | > 100 µM (inactive) | > 100 µM (inactive) |  | > 100 µM (inactive) | 74.1 µM (inactive) | > 100 µM (inactive) | > 100 µM (inactive)
COc1ccc2c(ccc3c(COC(=O)NC(C)C)c(COC(=O)NC(C)C)n(C)c32)c1 | 15.1 µM (inactive) | 12.7 µM (inactive) | 9.79 µM | 13.2 µM (inactive) | 12.4 µM (inactive) | 2.11 µM (inactive) | 0.655 µM (active) | 10.8 µM (inactive) | 7.74 µM (inactive) | 16.7 µM (inactive) | 8.79 µM (inactive) | 16.3 µM (inactive) | 11.9 µM (inactive) | 10 µM (inactive) |  | 17.1 µM (inactive) | 11.5 µM (inactive) | 5.19 µM (inactive) | 11.1 µM (inactive) | 12.7 µM (inactive)
O=C(NCc1ccc(Cl)cc1)c1cc2sccc2nc1C(F)(F)F | 18.9 µM (inactive) | 69 µM (inactive) |  | 49.7 µM (inactive) | 19.8 µM (inactive) | 31.7 µM (inactive) | 39.9 µM (inactive) | > 100 µM (inactive) | > 100 µM (inactive) | 34 µM (inactive) | 28 µM (inactive) | 31.3 µM (inactive) | 39.9 µM (inactive) | > 100 µM (inactive) | 44.8 µM (inactive) | 50 µM (inactive) | 54.2 µM (inactive) | 24.2 µM (inactive) | 48 µM (inactive) | 26.9 µM (inactive)
CCOC(=O)c1c(N2CCOCC2)[nH]c(=O)c(C(c2ccc(Cl)c([N+](=O)[O-])c2)c2c(O)c(C(=O)OCC)c(N3CCOCC3)[nH]c2=O)c1O | 19.6 µM (inactive) | 70 µM (inactive) | > 100 µM | 24.3 µM (inactive) | 42.8 µM (inactive) | 82.6 µM (inactive) | 36.1 µM (inactive) | 20.9 µM (inactive) | 30.6 µM (inactive) | > 100 µM (inactive) | > 100 µM (inactive) | 15.2 µM (inactive) | 24.4 µM (inactive) | 26.7 µM (inactive) | 20.5 µM (inactive) |  | 23.4 µM (inactive) | 44.2 µM (inactive) | 14.2 µM (inactive) | 17.2 µM (inactive)
CCOc1cc(NC(C)=O)ccc1C(=O)NN1C(=O)C(Cl)C1c1ccco1 (stereo not drawn) |  | 15.7 µM (inactive) | 19.1 µM | 13.3 µM (inactive) | 14.9 µM (inactive) | 17.1 µM (inactive) | 13.9 µM (inactive) | 19.1 µM (inactive) | 15 µM (inactive) | 18.3 µM (inactive) | 16 µM (inactive) | 16.6 µM (inactive) | 13.5 µM (inactive) | 18.3 µM (inactive) | 14.5 µM (inactive) | 18.6 µM (inactive) | 32.3 µM (inactive) | 16.1 µM (inactive) | 17.9 µM (inactive) | 16.9 µM (inactive)

Source: ChEMBL document CHEMBL1201862, “PubChem BioAssay data set” (2004)
